Measured values: patent US20250032490A1, “THERAPEUTIC REGIMENS FOR TREATMENT OF PAROXYSMAL NOCTURNAL HEMOGLOBINURIA” (Achillion Pharmaceuticals, Inc., priority 2017, published 2025)

Key:
[1] = tested on: rabbit erythrocytes; test: CAP-mediated hemolysis assay with rabbit erythrocytes; assay type: cell-based; conditions: Oryctolagus cuniculus, Erythrocyte; for inhibition at 0.00234 µM: Compound 1 0.00234 μM; for inhibition at 0.00469 µM: Compound 1 0.00469 μM; for inhibition at 0.00938 µM: Compound 1 0.00938 μM; for inhibition at 0.0188 µM: Compound 1 0.0188 μM; for inhibition at 0.0375 µM: Compound 1 0.0375 μM; for inhibition at 0.075 µM: Compound 1 0.075 μM; for inhibition at 0.15 µM: Compound 1 0.15 μM; for inhibition at 0.75 µM: Compound 1 0.75 μM
Method: Inhibition was analyzed by the method of Prichard and Shipman (Prichard, M. N. and C. Shipman, Jr. A Three-Dimensional Model to Analyze Drug-Drug Interactions. Antiviral Research 1990, 14:181-205) Three-dimensional surface graphs of each experiment were generated and analyzed using an Excel spreadsheet program adapted from the MacSynergy II spreadsheet (University of Alabama, Birmingham, AL). The X-axis and Y-axis of each surface graph represent the concentrations of the two test compounds, and the Z-axis represents the difference between measured inhibition and a theoretically determined additive inhibition. For an additive relationship, the surface graph resembles a horizontal plane at Z=0, whereas positive surface peaks indicate greater inhibition than expected and therefore synergy, and negative surface peaks indicate less inhibition than expected and therefore antagonism.
Synergy and antagonism volumes were calculated separately as the summed volumes of peaks respectively above and below the Z=0 plane. Volumes were determined using 95% confidence limits to assure significance.
Inhibition was analyzed by the method of Chou and Talalay (Chou, T.-C. and P. Talalay. Analysis of Combined Drug Effects: A New Look at a Very Old Problem. Trends Pharmacol. Sci. 1983, 4:450-454; Chou, T. C. Theoretical basis, experimental design, and computerized simulation of synergism and antagonism in drug combination studies. Pharmacological Reviews 2006, 58:621-681). Analysis using the median-effect equation of Chou and Talalay was performed with CompuSyn software (ComboSyn, Inc, Paramus, NJ). […] Three constant ratios were analyzed in each experiment, centered approximately at the ratio of the individual IC50 values for the two compounds and ranging two-fold higher and lower. […] Combination index (CI) values were determined at inhibition values of 50%, 75%, and 90%. Interactions were considered additive for CI values between 0.9 and 1.1. […] Interactions were considered slightly antagonistic for CI values between 1.1 and 1.2, moderately antagonistic for CI values between 1.2 and 1.45; antagonistic for CI values between 1.45 and 3.3, and strongly antagonistic for CI values between 3.3 and 10.
Compstatin was obtained from Tocris Bioscience (Bristol, UK). The murine monoclonal antibody to human C5, isotype IgGIK, was obtained as product number A217 from Quidel (San Diego, CA). FUT-175 (nafamostat) was obtained from Calbiochem EMD Millipore (Billerica, MA).
Anti-C5 (murine monoclonal antibody to human C5, isotype IgGIK, product No. A217 from Quidel, San Diego, CA) was obtained as a 1.1 mg/mL stock in buffered saline. Gelatin veronal buffer (GVB) without Ca^++ and Mg (GVB^0), 100 mM MgCl2+100 mM EGTA (MgEGTA), normal human serum (NHS), and 5×10^8/mL rabbit erythrocytes (Er) were obtained from Complement Technology Inc. (Tyler, TX).
GVB^0·MgEGTA was prepared by mixing GVB^0 and 100 mM MgEGTA in a 9:1 ratio. Er cells were used within two weeks of purchase; before each assay cells were collected by centrifugation at 800×g and 4° C. for 3 minutes and the buffer was replaced with equal volume fresh cold GVB^0·MgEGTA.
Each of the 64 possible combinations of compounds at varying concentrations was tested in duplicate or triplicate wells. […] 50 μL GVB^0·MgEGTA was added to each well, followed by 50 μL 20% NHS in GVB^0·MgEGTA. The plates were sealed, mixed on a microtiter plate shaker, and incubated at 37° C. for 15 minutes. 20 μL Er was then added to each well and the plates were sealed, mixed, and incubated at 37° C. for 30 minutes with an added shaking at 15 minutes. The following controls were each included in quadruplicate: 2.4 μL DMSO+120 μL GVB^0·MgEGTA (representing background signal); 2.4 μL DMSO+100 μL GVB^0·MgEGTA+20 μL Er (no serum, representing 0% CAP-mediated lysis); 2.4 μL DMSO+50 μL GVB^0·MgEGTA+50 μL 20% NHS+20 μL Er (no compound, representing 100% CAP-mediated lysis); and 2.4 μL DMSO+100 μL H2O+20 μL Er (osmotic lysis, representing maximal lysis). […]

[2] = tested on: complement system alternative pathway; test: CAP Wieslab assay (CAP-mediated TCC production); assay type: biochemical, human; conditions: AP activity in vitro
[3] = Experiment 2, Compstatin 0-30 μM
[4] = Experiment 3, Compstatin 0-30 μM
[5] = Experiment 4, Compstatin 0-30 μM

For `CC(=O)c1nn(CC(=O)N2C[C@H](F)C[C@H]2C(=O)Nc2cccc(Br)n2)c2ccc(-c3cnc(C)nc3)cc12` [Compound 1, (2S,4R)-1-(2-(3-acetyl-5-(2-methylpyrimidin-5-yl)-1H-indazol-1-yl)acetyl)-N-(6-bromopyridin-2-yl)-4-fluoropyrrolidine-2-carboxamide], the inhibition at 0.00234 µM [1, 3] was 0%, the inhibition at 0.00234 µM ([1]; Experiment 2, FUT-175 0-40 μM) was 5% and the inhibition at 0.00469 µM [1, 3] was 0%. For the same compound, the inhibition at 0.00469 µM ([1]; Experiment 2, FUT-175 0-40 μM) was 7%, the inhibition at 0.00938 µM [1, 3] was 3.2% and the inhibition at 0.00938 µM ([1]; Experiment 2, FUT-175 0-40 μM) was 13%. For the same compound, the inhibition at 0.0188 µM [1, 3] was 16%, the inhibition at 0.0188 µM ([1]; Experiment 2, FUT-175 0-40 μM) was 31% and the inhibition at 0.0375 µM [1, 3] was 45%. The inhibition at 0.0375 µM ([1]; Experiment 2, FUT-175 0-40 μM) was 70%, the inhibition at 0.075 µM [1, 3] was 72% and the inhibition at 0.15 µM [1, 3] was 91%. The inhibition at 0.15 µM ([1]; Experiment 2, FUT-175 0-40 μM) was 98%, the inhibition at 0.75 µM ([1]; Experiment 2, FUT-175 0-40 μM) was 95% and the inhibition at 0.00234 µM [1, 4] was 3%. The inhibition at 0.00234 µM ([1]; Experiment 3, FUT-175 0-40 μM) was 11%, the inhibition at 0.00469 µM [1, 4] was 7.7% and the inhibition at 0.00469 µM ([1]; Experiment 3, FUT-175 0-40 μM) was 17%. For the same compound, the inhibition at 0.00938 µM [1, 4] was 22%, the inhibition at 0.00938 µM ([1]; Experiment 3, FUT-175 0-40 μM) was 32% and the inhibition at 0.0188 µM [1, 4] was 41%. It also gave an inhibition at 0.0188 µM ([1]; Experiment 3, FUT-175 0-40 μM) of 54%, an inhibition at 0.037 µM ([1]; Experiment 3, Compound 1 0.037 μM, FUT-175 0-40 μM) of 94% and an inhibition at 0.0375 µM [1, 4] of 73%. It also gave an inhibition at 0.075 µM [1, 4] of 96%, an inhibition at 0.15 µM [1, 4] of 98% and an inhibition at 0.15 µM ([1]; Experiment 3, FUT-175 0-40 μM) of 98%. The inhibition at 0.75 µM ([1]; Experiment 3, FUT-175 0-40 μM) was 98%, the inhibition at 0.00234 µM [1, 5] was 0.8% and the inhibition at 0.00469 µM [1, 5] was 7.1%. For the same compound, the inhibition at 0.00938 µM [1, 5] was 20%, the inhibition at 0.0188 µM [1, 5] was 41% and the inhibition at 0.0375 µM [1, 5] was 81%. The inhibition at 0.075 µM [1, 5] was 97%, the inhibition at 0.15 µM [1, 5] was 99% and the inhibition at 0.00234 µM ([1]; Experiment #1, FUT-175 0-40 μM) was 4.5%. It also gave an inhibition at 0.00469 µM ([1]; Experiment #1, FUT-175 0-40 μM) of 8.3%, an inhibition at 0.0093 µM ([1]; Experiment #1, Compound 1 0.0093 μM, FUT-175 0-40 μM) of 16% and an inhibition at 0.0188 µM ([1]; Experiment #1, FUT-175 0-40 μM) of 31%. It also gave an inhibition at 0.0234 µM ([1]; Experiment #1, Compound 1 0.0234 μM, Compstatin 0-30 μM) of 27%, an inhibition at 0.0375 µM ([1]; Experiment #1, FUT-175 0-40 μM) of 44% and an inhibition at 0.0469 µM ([1]; Experiment #1, Compound 1 0.0469 μM, Compstatin 0-30 μM) of 44%. For the same compound, the inhibition at 0.0938 µM ([1]; Experiment #1, Compound 1 0.0938 μM, Compstatin 0-30 μM) was 75%, the inhibition at 0.15 µM ([1]; Experiment #1, FUT-175 0-40 μM) was 96% and the inhibition at 0.188 µM ([1]; Experiment #1, Compound 1 0.188 μM, Compstatin 0-30 μM) was 91%. The inhibition at 0.375 µM ([1]; Experiment #1, Compound 1 0.375 μM, Compstatin 0-30 μM) was 98%, the inhibition at 0.75 µM ([1]; Experiment #1, Compstatin 0-30 μM) was 98% and the inhibition at 0.75 µM ([1]; Experiment #1, FUT-175 0-40 μM) was 79%. It also gave an inhibition at 1.5 µM ([1]; Experiment #1, Compound 1 1.5 μM, Compstatin 0-30 μM) of 98% and an IC50 [2] of 26 nM.
